Assay results published in patent publication US20090105245A1, “METHODS FOR TREATING MACULAR EDEMA AND OCULAR ANGIOGENESIS USING AN ANTI-INFLAMMATORY AGENT AND A RECEPTOR TYROSINE KINASE INHIBITOR” (priority 2006, published 2009).
Entries after “also recorded” stand apart in the source; their conditions may differ.

How the values were obtained:
[1] = tested on: laser-induced choroidal neovascularization in the mouse; test: Mouse laser-induced CNV, topical NSAID drops; format: in vivo; conditions: for CNV lesions at Bruch's membrane rupture sites vs vehicle: follow-up experiment
Method: METHODS: Choroidal neovascularization was generated by modification of a previously described technique [Tobe, 1998 #448]. Briefly, 4 to 5 week old female C57BL/6J mice were anesthetized with ketamine hydrochloride (100 mg/kg body weight) and the pupils were dilated with 1% tropicamide. Three burns of 532 nm diode laser photocoagulation (75 μm spot size, 0.1 seconds duration, 120 mW) were delivered to each retina using the slit lamp delivery system of an OcuLight GL Photocoagulator (Iridex, Mountain View, Calif.) and a hand held cover slide as a contact lens. Burns were performed in the 9, 12, and 3 o'clock positions of the posterior pole of the retina. Production of a bubble at the time of laser, which indicates rupture of Bruch's membrane, is an important factor in obtaining CNV [Tobe, 1998 #448], so only burns in which a bubble was produced were included in the study. […] In some experiments, both eyes were treated with drug and these mice were compared to littermates in which both eyes were treated with vehicle. In other experiments, one eye was treated with drug and the fellow eye was treated with vehicle. Eyes were rapidly dissected for choroidal flat mounts or frozen in optimum cutting temperature embedding compound (OCT; Miles Diagnostics, Elkhart, Ind.).
The sizes of CNV lesions were measured in choroidal flat mounts (Edelman and Castro, 2000). Mice used for the flat mount technique were anesthetized and perfused with 1 ml of phosphate-buffered saline containing 50 mg/ml of fluorescein-labeled dextran (2×10^6 average mw, Sigma, St. Louis, Mo.) as previously described (Tobe et al., 1998a). The eyes were removed and fixed for 1 hour in 10% phosphate-buffered formalin. The cornea and lens were removed and the entire retina was carefully dissected from the eyecup. Radial cuts (4-7, average 5) were made from the edge to the equator and the eyecup was flat mounted in Aquamount with the sclera facing down. Flat mounts were examined by fluorescence microscopy on an Axioskop microscope (Zeiss, Thornwood, N.Y.) and images were digitized using a 3 color CCD video camera (IK-TU40A, Toshiba, Tokyo, Japan) and a frame grabber. Image-Pro Plus software (Media Cybernetics, Silver Spring, Md.) was used to measure the total area of hyperfluorescence associated with each burn, corresponding to the total fibrovascular scar. The areas within each eye were averaged to give one experimental value per eye for plotting the areas in the figures.
In some mice, the eyes were rapidly removed and frozen in optimum cutting temperature embedding compound (OCT; Miles Diagnostics, Elkhart, Ind.). Ten μm frozen sections were cut through entire lesions and the sections were histochemically stained with biotinylated Griffonia simplicifolia lectin B4 (GSA, Vector Laboratories, Burlingame, Calif.) which selectively binds to vascular cells. Slides were incubated in methanol/H2O2 for 10 minutes at 4° C., washed with 0.05 M Tris-buffered saline, pH 7.6 (TBS), and incubated for 30 minutes in 10% normal porcine serum. Slides were incubated 2 hours at room temperature with biotinylated GSA and after rinsing with 0.05M TBS, they were incubated with avidin coupled to peroxidase (Vector Laboratories) for 45 minutes at room temperature. The slides were developed with HistoMark Red (Kirkegaard and Perry, Cabin John, Md.) to give a red reaction product and counter stained with Contrast Blue (Kirkegaard and Perry).

[2] = tested on: preretinal neovascularization in the mouse model of oxygen-induced retinopathy; test: Mouse model of oxygen-induced ischemic retinopathy, topical drops; format: in vivo; conditions: for retinal (preretinal) neovascularization vs vehicle: P12-P17
Method: METHODS: Ischemic retinopathy was produced in C57BL/6J mice by a method described by Smith et al [Smith, 1994 #50]. Seven-day-old (P7) mice and their mothers were placed in an airtight incubator and exposed to an atmosphere of 75±3% oxygen for 5 days. Incubator temperature was maintained at 23±2° C., and oxygen was measured every 8 hours with an oxygen analyzer. After 5 days, the mice were removed from the incubator, placed in room air, and drug treatment was begun. Mice were given one drop four times a day in masked fashion. At P17, after 5 days of treatment, mice were sacrificed, eyes were rapidly removed and frozen in OCT.
Ocular frozen sections (10 μm) were histochemically stained with GSA as described above except that diaminobenzidine was used to give a brown reaction product. Slides were counterstained with eosin, which stains the internal limiting membrane and mounted with Cytoseal. To perform quantitative assessments, 10 μm serial sections were cut through the entire eye starting with sections that included the iris root on one side of the eye and proceeding to the iris root on the other side. Every tenth section, roughly 100 μm apart, were stained with GSA, examined with an Axioskop microscope, and images were digitized using a 3 CCD color video camera and a frame grabber. Image-Pro Plus software was used to delineate GSA-stained cells on the surface of the retina and their area was measured. For plotting the area measurements for the figure, the mean of the measurements from each eye was used as a single experimental value.

[3] = tested on: VEGF mRNA; test: Semi-quantitative RT-PCR of retinal VEGF mRNA in mice with ischemic retinopathy; format: in vivo, mouse; conditions: P12-P17
Method: Mice with ischemic retinopathy were treated with 0.1% or 0.5% Nepafenac drops or vehicle drops four times a day between P12 and P17 and then sacrificed and retinal RNA was isolated using the guanidine isothiocyanate method as described by Chomczynski and Sacchi [Chomczynski, 1987 #30]. Reverse transcription was carried out with 0.5 μg of total RNA, reverse transcriptase (SuperScript II, Life Technologies, Gaithersburg, Md.), and 5.0 μM oligo d(T) primer. Aliquots of the cDNAs were used for PCR amplification with primers specific for VEGF, (5′-TTACTGCTGTACCTCCACC-3′) and (5′-ACAGGACGGCTTGAAGATG-3′). Titrations were performed to insure that PCR reactions were carried out in the linear range of amplification. Mouse S16 ribosomal protein primers (5′-[…]-3′ and 5′-[…]-3′) were used to provide an internal control for the amount of template in the PCR reactions.

[4] = tested on: retinal vasculature and neuronal function in the STZ-diabetic rat; test: STZ-diabetic rat, topical eyedrops for 2 months or 9 months; format: in vivo
Method: Methods. Streptozotocin (STZ)-induced diabetic rats were assigned to 3 groups (untreated control, Nepafenac eyedrops, and vehicle eyedrops) for comparison to nondiabetic controls. Eyedrops were administered in both eyes 4 times/day using both subacute (2 mos) or chronic dosing paradigms (9 mos). During the 2 month study, prostaglandin E2 (PGE2), cyclooxygenase (COX)-2, and VEGF were measured by immunoassay, superoxide generation was measured by bioluminescence, activities of caspases 3 and 6 were measured fluorimetrically, and nitric oxide (NO) was estimated from levels of nitrite plus nitrate. Moreover, retinal leukostasis was quantified after intravenous perfusion with FITC-concanavalin A. During the 9-month study, vascular lesions associated with diabetic retinopathy were quantitated after isolation of the retinal vasculature by the trypsin digest technique, and loss of cells in the ganglion cell layer was evaluated in retinal cross-sections. In the chronic dosing study, retinal function also was assessed by measuring electroretinograms (ERGs) under dark and light adapted conditions to evaluate rod and cone pathways, respectively. The impact of topical ocular administration on corneal protease activity was assessed with MMP mRNA analysis and zymography. The signals were imported into Matlab™ (Mathworks Inc.) for further processing and the oscillatory potentials (OP's) were isolated using a 9 pole Butterworth filter with 34 Hz cutoff frequency (unity gain above 40 Hz and >12 dB attenuation 0 to 30 Hz). To simplify the analysis of OP timing the summed latency was calculated for OP's 1-4 similar to Hancock and Kraft, where TTP=(t1+t2+t3+t4) and tx=the time to peak of OPx.

[5] = tested on: visual acuity; conditions: Phase III, at 24 months, up to; cited from earlier work
[6] = 0.1% drops 4 times a day for 14 days
[7] = eyedrops 4 times/day, 2 months of diabetes

With `O=C(O)Cc1ccccc1Nc1c(Cl)cccc1Cl` [diclofenac] as the molecule, how does the “CNV lesions at Bruch's membrane rupture sites vs vehicle” value [1, 6] read?
The value was “no difference from vehicle-treated eyes”.

Which results are given for `NC(=O)Cc1cccc(C(=O)c2ccccc2)c1N` [nepafenac, 2-Amino-3-benzoyl-phenylacetamide]?
retinal (preretinal) neovascularization vs vehicle ([2]; 0.1% drops 4 times a day): significantly less retinal neovascularization; also recorded: significantly less preretinal NV; retinal (preretinal) neovascularization vs vehicle ([2]; 0.5% drops 4 times a day): significantly less retinal neovascularization; also recorded: significantly less preretinal NV; inhibition of preretinal neovascularization ([2]; topical, mouse OIR (FIG. 11)): inhibits preretinal neovascularization; retinal VEGF mRNA vs vehicle ([3]; 0.1% drops 4 times a day): less VEGF mRNA than retinas from eyes treated with vehicle; retinal VEGF mRNA vs vehicle ([3]; 0.5% drops 4 times a day): less VEGF mRNA than retinas from eyes treated with vehicle; CNV lesions at Bruch's membrane rupture sites vs vehicle ([1]; 0.03% drops 4 times a day for 14 days): significantly smaller areas of CNV at Bruch's membrane rupture sites than did eyes treated with vehicle; CNV lesions at Bruch's membrane rupture sites vs vehicle ([1]; 0.03% drops 4 times a day for 14 days, listed as nepafanac): significantly smaller than those in eyes treated with vehicle; CNV lesions at Bruch's membrane rupture sites vs vehicle [1, 6]: significantly smaller areas of CNV at Bruch's membrane rupture sites than did eyes treated with vehicle; CNV lesions at Bruch's membrane rupture sites vs vehicle ([1]; 0.1% drops 4 times a day for 14 days, listed as nepafanac): significantly smaller than those in eyes treated with vehicle; CNV area vs vehicle ([1]; 0.1% drops 4 times a day, 2 weeks, first experiment): significantly smaller CNV lesions than treatment with vehicle; area of CNV in treated eye compared to vehicle-treated fellow eye ([1]; 0.1% drops in one eye, vehicle in fellow eye): significantly less; CNV area vs vehicle ([1]; 0.5% drops 4 times a day, 2 weeks): significantly smaller CNV lesions than treatment with vehicle; inhibition of laser-induced choroidal neovascularization ([1]; topical, mouse (FIG. 10)): inhibits laser-induced choroidal neovascularization; protection against OP (oscillatory potential) delays, ERG ([4]; 0.3% topical, chronic dosing): completely protected; inhibition of morphologic vascular changes ([4]; 9 months of diabetes, STZ-diabetic rat (FIG. 12)): inhibits morphologic vascular changes present at 9 months of diabetes; diabetes-induced activation of caspases 3 and 6 in retina [4, 7]: partially inhibited; retinal VEGF or NO levels [4, 7]: no effect; TUNEL-positive capillary cells, acellular capillaries and pericyte ghosts ([4]; eyedrops 4 times/day, chronic dosing (9 months)): significantly inhibited all of these retinal abnormalities; corneal protease activity vs vehicle ([4]; topical, after 9 months of diabetes): No significant changes; OP summed latency (TTP) vs nondiabetic control animals ([4]; topical, chronic dosing): statistically no different than nondiabetic control animals

For `O=C(c1ccccc1)c1ccc2n1CCC2C(=O)O` (centres unmarked) [ketorolac tromethamine], which “size of CNV lesions vs vehicle” value ([1]; 0.5% drops 4 times a day for 1 week) is on record?
Its value is “no difference in the size of CNV lesions between the two groups”.

What about the survival ([1]; 0.5% drops or vehicle 4 times a day for 1 week) of the same molecule?
Its survival is “All mice survived”.

What about the “CNV vs vehicle in surviving mice” value ([1]; 0.5% drops, 2 weeks, numbers insufficient for statistics) of the same molecule?
Its value is “did not appear to have less CNV than mice treated with vehicle”.

What about the mortality ([1]; 0.5% drops, two weeks) of the same molecule?
Its mortality is “high mortality”.

B1: ranibizumab (antibody, chains of the INN, looked up, V domains shown)
VH: EVQLVESGGGLVQPGGSLRLSCAASGYDFTHYGMNWVRQAPGKGLEWVGWINTYTGEPTYAADFKRRFTFSLDTSKSTAYLQMNSLRAEDTAVYYCAKYPYYYGTSHWYFDVWGQGTLVTVSS
VL: DIQLTQSPSSLSASVGDRVTITCSASQDISNYLNWYQQKPGKAPKVLIYFTSSLHSGVPSRFSGSGSGTDFTLTISSLQPEDFATYYCQQYSTVPWTFGQGTKVEIK
modifications: Fab
With B1 as the molecule, how does the “patients with improved visual acuity” value [5] read?
Its value is 35-40%.
